Experimental findings from US20230191413A1, “METHOD AND APPARATUS FOR MEASURING PHASE TRANSITION CHARACTERISTICS OF MACROMOLECULES” (CAMBRIDGE ENTERPRISE LIMITED, priority 2020, published 2023) are described below.

For the assay, the target named is T1, FUS-GFP (FUS^G156E-EGFP) (Homo sapiens, UniProt P35637, G156E).
T1 sequence (P35637 1-526 G156E): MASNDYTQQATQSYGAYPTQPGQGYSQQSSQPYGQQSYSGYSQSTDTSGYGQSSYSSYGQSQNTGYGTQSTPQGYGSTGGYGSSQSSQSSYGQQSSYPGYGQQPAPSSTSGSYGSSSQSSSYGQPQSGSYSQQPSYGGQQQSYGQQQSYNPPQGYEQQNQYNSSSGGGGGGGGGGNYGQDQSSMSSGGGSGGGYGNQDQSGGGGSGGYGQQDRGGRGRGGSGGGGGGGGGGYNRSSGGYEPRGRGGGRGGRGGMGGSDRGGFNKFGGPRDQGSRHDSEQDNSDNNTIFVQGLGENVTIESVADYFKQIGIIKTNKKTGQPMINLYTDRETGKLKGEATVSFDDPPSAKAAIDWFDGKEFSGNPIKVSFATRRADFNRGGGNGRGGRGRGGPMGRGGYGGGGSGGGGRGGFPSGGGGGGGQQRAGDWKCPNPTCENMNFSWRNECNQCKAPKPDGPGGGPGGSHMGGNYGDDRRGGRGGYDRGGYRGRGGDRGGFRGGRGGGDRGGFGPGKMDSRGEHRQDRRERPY
As to the kind of experiment: Droplet microfluidics phase diagram of FUS-GFP liquid-liquid phase separation as a function of protein and 1,6-hexanediol concentration. Type of assay: biochemical. The conditions noted are these: micro-droplets, GFP fluorescence puncta; homogeneous phase at higher diol concentrations (FIG. 6, N=322 droplets). As to the method:
The method utilises droplet microfluidics to rapidly produce many micro-droplets, each of which can be considered a discrete microenvironment in which to study protein phase separation. By altering the input solution conditions, a broad range of phase-separation environments are produced rapidly in order to map LLPS behaviour over a wide region of chemical space. […] Using the microfluidic platform, the phase boundary between phase-separated and homogeneous FUS solution is determined, as modulated by the small molecule 1,6-hexanediol, which is known to strongly interfere with LLPS behaviour. […]
Alexa647 dye (10 μM) was mixed with the 1,6-hexanediol solution, to provide a fluorescent marker for the intra-droplet 1,6-hexanediol concentration. […] Samples were collected for three minutes before undergoing fluorescence imaging analysis.
The concentration of FUS^G156E-EGFP and 1,6-hexanediol present in each droplet was determined by integration of volume-normalised EGFP (green fluorescent protein) and Alexa647 fluorescence, respectively. Phase separation was observed by the presence of discrete puncta in GFP fluorescence, whereas homogeneous droplet fluorescence indicated the absence of phase separation (FIG. 5). […]

Molecules are shown by their SMILES.

As for `OCCCCCCO` [1,6-hexanediol], the “concentration of 1,6-hexanediol at which phase separation of FUS-GFP was observable” value is on record as under 1 % v/v.
